From PMC10766962 (Nature Communications, 2024)
Positions of bridges follow the written chain, without caps; N, C: chain ends. Non-standard residues stand in square brackets, D forms with d. Residues, ends and D or L forms follow the SMILES beside them. Groups on a side chain read outwards from the residue. *: point of attachment. Acetyl(2-S-cholesteryl) = CC(C)CCC[C@@H](C)[C@H]1CC[C@H]2[C@@H]3CC=C4C[C@@H](SCC(=O)*)CC[C@]4(C)[C@H]3CC[C@]12C; R8 = C=CCCCCCC[C@@](C)(N)C(=O)O; PEG4 = NCCOCCOCCOCCOCCC(=O)O; S5 = C=CCCC[C@](C)(N)C(=O)O; Nle = CCCC[C@H](N)C(=O)O

How the values were obtained:
[1] = target: SARS-CoV-2 5-helix bundle (5-HB) protein (Severe acute respiratory syndrome coronavirus 2, UniProt P0DTC2); assay: biochemical; format: binding

CC[C@H](C)[C@H](NC(=O)CNC(=O)[C@H](CO)NC(=O)[C@@H](NC(=O)[C@H](CC(=O)O)NC(C)=O)[C@@H](C)CC)C(=O)N[C@@H](CC(N)=O)C(=O)N[C@@H](C)C(=O)N[C@@H](CO)C(=O)N[C@H](C(=O)N[C@H](C(=O)N[C@@H](CC(N)=O)C(=O)N[C@H](C(=O)N[C@]1(C)CCCCCCC=CCCC[C@@](C)(C(=O)N[C@@H](CCC(=O)O)C(=O)N[C@H](C(=O)N[C@@H](C)C(=O)N[C@@H](CCCCN)C(=O)N[C@@H](CC(N)=O)C(=O)N[C@@H](CC(C)C)C(=O)N[C@@H](CC(N)=O)C(=O)N[C@@H](CCC(=O)O)C(=O)N[C@@H](CO)C(=O)N[C@@H](CC(C)C)C(=O)N[C@H](C(=O)N[C@@H](CC(=O)O)C(=O)N[C@@H](CC(C)C)C(=O)N[C@@H](CCC(N)=O)C(=O)N[C@@H](CCC(=O)O)C(=O)N[C@@H](CC(C)C)C(=O)NCC(=O)N[C@@H](CCCCN)C(N)=O)[C@@H](C)CC)C(C)C)NC(=O)[C@H](CC(C)C)NC(=O)[C@H](CCCNC(=N)N)NC(=O)[C@H](CC(=O)O)NC(=O)[C@H]([C@@H](C)CC)NC(=O)[C@H](CCC(=O)O)NC(=O)[C@H](CCCCN)NC1=O)[C@@H](C)CC)C(C)C)C(C)C [RQ-01 (- linker-lipid)]
improvement of affinity compared to the unstapled HR2 peptide [1]: 7.5 fold

CCCC[C@H](NC(=O)[C@H](CO)NC(=O)[C@H](CO)NC(=O)[C@@H](NC(=O)[C@H](CCC(N)=O)NC(=O)[C@H](CO)NC(=O)[C@H](CO)NC(=O)[C@@H](NC(=O)[C@H](CC(=O)O)NC(C)=O)[C@@H](C)CC)[C@@H](C)CC)C(=O)N[C@@H](CC(N)=O)C(=O)N[C@@H](CCC(N)=O)C(=O)N[C@@H](CO)C(=O)N[C@@H](CC(C)C)C(=O)N[C@]1(C)CCCCCCC=CCCC[C@@](C)(C(=O)N[C@@H](CCC(=O)O)C(=O)N[C@@H](C)C(=O)N[C@@H](CCC(N)=O)C(=O)N[C@@H](CCCCN)C(=O)N[C@H](C(=O)N[C@@H](CC(C)C)C(=O)N[C@@H](CC(=O)O)C(=O)N[C@H](C(=O)N[C@H](C(=O)N[C@@H](CCCCNC(=O)CCOCCOCCOCCOCCNC(=O)CS[C@H]2CC[C@@]3(C)C(=CC[C@H]4[C@@H]5CC[C@H]([C@H](C)CCCC(C)C)[C@@]5(C)CC[C@@H]43)C2)C(N)=O)C(C)C)[C@@H](C)O)[C@@H](C)CC)NC(=O)[C@H]([C@@H](C)CC)NC(=O)[C@H](Cc2ccc(O)cc2)NC(=O)[C@H](CC(=O)O)NC(=O)[C@H](CCCCN)NC(=O)[C@H](CO)NC(=O)[C@H](CCC(N)=O)NC1=O [SLI-NIPV] (Ac-DISSQISS[Nle]NQSL[R8]QSKDYI[S5]EAQKILDTVK([PEG4-Acetyl(2-S-cholesteryl)])-NH2; staple 14-21)
cytotoxicity (293T cells): no cytotoxicity

CC[C@H](C)[C@H](NC(=O)[C@H](C)NC(=O)[C@H](CS)NC(=O)[C@H](CC(=O)O)NC(=O)[C@@H]1CCCN1C(=O)CNC(=O)[C@H](CC(C)C)NC(=O)[C@@H](NC(=O)[C@H](Cc1c[nH]cn1)NC(=O)[C@H](CS)NC(=O)[C@@H](NC(C)=O)[C@@H](C)O)[C@@H](C)CC)C(=O)N[C@@H](CCC(=O)O)C(=O)N1CCC[C@H]1C(=O)N[C@@H](Cc1c[nH]cn1)C(=O)N[C@@H](CC(=O)O)C(=O)N[C@@H](Cc1c[nH]c2ccccc12)C(=O)N[C@H](C(=O)N[C@]1(C)CCCCCCC=CCCC[C@@](C)(C(=O)N[C@@H](CCC(N)=O)C(=O)N[C@H](C(=O)N[C@H](C(=O)N[C@@H](Cc2c[nH]cn2)C(=O)N[C@@H](CC(=O)O)C(=O)N[C@@H](Cc2ccccc2)C(=O)N[C@H](C(=O)N[C@@H](CCCCNC(=O)CCOCCOCCOCCOCCNC(=O)CS[C@H]2CC[C@@]3(C)C(=CC[C@H]4[C@@H]5CC[C@H]([C@H](C)CCCC(C)C)[C@@]5(C)CC[C@@H]43)C2)C(N)=O)C(C)C)[C@@H](C)CC)[C@@H](C)CC)NC(=O)[C@H]([C@@H](C)CC)NC(=O)[C@H](CCCCN)NC(=O)[C@H](CC(=O)O)NC(=O)[C@H]([C@@H](C)O)NC(=O)[C@H]([C@@H](C)CC)NC(=O)[C@H](CCC(=O)O)NC1=O)[C@@H](C)O [SLI-EBOV] (Ac-TCHILGPDCAIEPHDWT[R8]EITDKI[S5]QIIHDFVK([PEG4-Acetyl(2-S-cholesteryl)])-NH2; staple 18-25)
cytotoxicity (HeLa cells): no cytotoxicity
